Test results taken from US20040266623A1, “SYNERGISTIC QUINCLORAC HERBICIDAL COMPOSITIONS” (priority 2003, published 2004).

Assays:
Experiment in all cases: Greenhouse pot test, postemergent spray, visual control rating converted to percent control
Type in all cases: in vivo
dandelion = tested on: dandelion
Summary of the method: (§1)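 Greenhouse-grown pots were sprayed postemergence at 43.46 gallons spray solution/acre. Control was scored visually on a 1–9 scale (1 = no control, 9 = plant death) at 24, 48 and 72 HAT and at 7, 14 and 21 DAT, then converted to percent control. Expected combination responses were calculated by Colby's formulas.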

crabgrass = tested on: crabgrass
Summary of the method: as §1

white clover = tested on: white clover
Summary of the method: as §1

plantain = tested on: plantain
Summary of the method: as §1

[1] = Test 3, 7 DAT, scale 1=no control, 9=death of plant
[2] = Test 3, 14 DAT, scale 1=no control, 9=death of plant
[3] = Test 3, 21 DAT, scale 1=no control, 9=death of plant
[4] = Test 3, 24 HAT, scale 1=no control, 9=death of plant
[5] = Test 3, 72 HAT, scale 1=no control, 9=death of plant
[6] = Test 4, 24 HAT, scale 1=no control, 9=death of plant
[7] = Test 4, 72 HAT, scale 1=no control, 9=death of plant

Structure (SMILES): Cc1nn(-c2cc(NS(C)(=O)=O)c(Cl)cc2Cl)c(=O)n1C(F)F [Sulfentrazone @ 0.02 lbs/A]
- % Control Dandelion (dandelion; Test 3, 7 DAT): 44.4%
- Control (1-9) Dandelion (dandelion; [1]): 4
- % Control Dandelion (dandelion; Test 3, 14 DAT): 77.8%
- Control (1-9) Dandelion (dandelion; [2]): 7
- % Control Dandelion (dandelion; Test 3, 21 DAT): 66.7%
- Control (1-9) Dandelion (dandelion; [3]): 6
- % Control Dandelion (dandelion; Test 3, 24 HAT): 33.3%
- Control (1-9) Dandelion (dandelion; [4]): 3
- % Control Dandelion (dandelion; Test 3, 72 HAT): 33.3%
- Control (1-9) Dandelion (dandelion; [5]): 3
- % Control Crabgrass (crabgrass; Test 3, 7 DAT): 44.4%
- Control (1-9) Crabgrass (crabgrass; [1]): 4
- % Control Crabgrass (crabgrass; Test 3, 14 DAT): 44.4%
- Control (1-9) Crabgrass (crabgrass; [2]): 4
- % Control Crabgrass (crabgrass; Test 3, 21 DAT): 33.3%
- Control (1-9) Crabgrass (crabgrass; [3]): 3
- % Control Crabgrass (crabgrass; Test 3, 24 HAT): 11.1%
- Control (1-9) Crabgrass (crabgrass; [4]): 1
- % Control Crabgrass (crabgrass; Test 3, 72 HAT): 22.2%
- Control (1-9) Crabgrass (crabgrass; [5]): 2
- % Control Clover (white clover; Test 3, 7 DAT): 33.3%
- Control (1-9) Clover (white clover; [1]): 3
- % Control Clover (white clover; Test 3, 14 DAT): 44.4%
- Control (1-9) Clover (white clover; [2]): 4
- % Control Clover (white clover; Test 3, 21 DAT): 44.4%
- Control (1-9) Clover (white clover; [3]): 4
- % Control Clover (white clover; Test 3, 24 HAT): 33.3%
- Control (1-9) Clover (white clover; [4]): 3
- % Control Clover (white clover; Test 3, 72 HAT): 22.2%
- Control (1-9) Clover (white clover; [5]): 2
- % Control Plantain (plantain; Test 3, 7 DAT): 100.0%
- Control (1-9) Plantain (plantain; [1]): 9
- % Control Plantain (plantain; Test 3, 14 DAT): 100.0%
- Control (1-9) Plantain (plantain; [2]): 9
- % Control Plantain (plantain; Test 3, 21 DAT): 100.0%
- Control (1-9) Plantain (plantain; [3]): 9
- % Control Plantain (plantain; Test 3, 24 HAT): 44.4%
- Control (1-9) Plantain (plantain; [4]): 4
- % Control Plantain (plantain; Test 3, 72 HAT): 88.9%
- Control (1-9) Plantain (plantain; [5]): 8

Structure (SMILES): Cc1cc(Cl)ccc1OCC(=O)OCCCCCC(C)C [MCPA IOE]
- % Control Dandelion (dandelion; Test 4, 7 DAT, 1.10 lbs/A): 44.4%
- Control (1-9) Dandelion (dandelion; Test 4, 7 DAT, 1.10 lbs/A): 4
- % Control Dandelion (dandelion; Test 4, 14 DAT, 1.10 lbs/A): 55.6%
- Control (1-9) Dandelion (dandelion; Test 4, 14 DAT, 1.10 lbs/A): 5
- % Control Crabgrass (crabgrass; Test 4, 7 DAT, 1.10 lbs/A): 11.1%
- Control (1-9) Crabgrass (crabgrass; Test 4, 7 DAT, 1.10 lbs/A): 1
- % Control Crabgrass (crabgrass; Test 4, 14 DAT, 1.10 lbs/A): 11.1%
- Control (1-9) Crabgrass (crabgrass; Test 4, 14 DAT, 1.10 lbs/A): 1
- % Control Clover (white clover; Test 4, 7 DAT, 1.10 lbs/A): 66.7%
- Control (1-9) Clover (white clover; Test 4, 7 DAT, 1.10 lbs/A): 6
- % Control Clover (white clover; Test 4, 14 DAT, 1.10 lbs/A): 100.0%
- Control (1-9) Clover (white clover; Test 4, 14 DAT, 1.10 lbs/A): 9
- % Control Plantain (plantain; Test 4, 7 DAT, 1.10 lbs/A): 66.7%
- Control (1-9) Plantain (plantain; Test 4, 7 DAT, 1.10 lbs/A): 6
- % Control Plantain (plantain; Test 4, 14 DAT, 1.10 lbs/A): 66.7%
- Control (1-9) Plantain (plantain; Test 4, 14 DAT, 1.10 lbs/A): 6

Structure (SMILES): Cc1nn(-c2cc(CC(Cl)C(=O)O)c(Cl)cc2F)c(=O)n1C(F)F (centres unmarked) [Carfentrazone @ 0.02 lbs/A]
- % Control Dandelion (dandelion; Test 4, 24 HAT): 33.3%
- Control (1-9) Dandelion (dandelion; [6]): 3
- % Control Dandelion (dandelion; Test 4, 72 HAT): 55.6%
- Control (1-9) Dandelion (dandelion; [7]): 5
- % Control Crabgrass (crabgrass; Test 4, 24 HAT): 11.1%
- Control (1-9) Crabgrass (crabgrass; [6]): 1
- % Control Crabgrass (crabgrass; Test 4, 72 HAT): 44.4%
- Control (1-9) Crabgrass (crabgrass; [7]): 4
- % Control Clover (white clover; Test 4, 24 HAT): 44.4%
- Control (1-9) Clover (white clover; [6]): 4
- % Control Clover (white clover; Test 4, 72 HAT): 44.4%
- Control (1-9) Clover (white clover; [7]): 4
- % Control Plantain (plantain; Test 4, 24 HAT): 33.3%
- Control (1-9) Plantain (plantain; [6]): 3
- % Control Plantain (plantain; Test 4, 72 HAT): 66.7%
- Control (1-9) Plantain (plantain; [7]): 6

Structure (SMILES): O=C(O)c1c(Cl)ccc2cc(Cl)cnc12 [Quinclorac @ 0.18 lbs/A]
- % Control Dandelion (dandelion; Test 3, 7 DAT): 22.2%
- Control (1-9) Dandelion (dandelion; [1]): 2
- % Control Dandelion (dandelion; Test 3, 14 DAT): 33.3%
- Control (1-9) Dandelion (dandelion; [2]): 3
- % Control Dandelion (dandelion; Test 3, 21 DAT): 33.3%
- Control (1-9) Dandelion (dandelion; [3]): 3
- % Control Dandelion (dandelion; Test 3, 24 HAT): 11.1%
- Control (1-9) Dandelion (dandelion; [4]): 1
- % Control Dandelion (dandelion; Test 3, 72 HAT): 22.2%
- Control (1-9) Dandelion (dandelion; [5]): 2
- % Control Dandelion (dandelion; Test 4, 24 HAT): 11.1%
- Control (1-9) Dandelion (dandelion; [6]): 1
- % Control Dandelion (dandelion; Test 4, 72 HAT): 22.2%
- Control (1-9) Dandelion (dandelion; [7]): 2
- % Control Crabgrass (crabgrass; Test 3, 7 DAT): 22.2%
- Control (1-9) Crabgrass (crabgrass; [1]): 2
- % Control Crabgrass (crabgrass; Test 3, 14 DAT): 33.3%
- Control (1-9) Crabgrass (crabgrass; [2]): 3
- % Control Crabgrass (crabgrass; Test 3, 21 DAT): 33.3%
- Control (1-9) Crabgrass (crabgrass; [3]): 3
- % Control Crabgrass (crabgrass; Test 3, 24 HAT): 11.1%
- Control (1-9) Crabgrass (crabgrass; [4]): 1
- % Control Crabgrass (crabgrass; Test 3, 72 HAT): 11.1%
- Control (1-9) Crabgrass (crabgrass; [5]): 1
- % Control Crabgrass (crabgrass; Test 4, 24 HAT): 11.1%
- Control (1-9) Crabgrass (crabgrass; [6]): 1
- % Control Crabgrass (crabgrass; Test 4, 72 HAT): 11.1%
- Control (1-9) Crabgrass (crabgrass; [7]): 1
- % Control Clover (white clover; Test 3, 7 DAT): 44.4%
- Control (1-9) Clover (white clover; [1]): 4
- % Control Clover (white clover; Test 3, 14 DAT): 44.4%
- Control (1-9) Clover (white clover; [2]): 4
- % Control Clover (white clover; Test 3, 21 DAT): 66.7%
- Control (1-9) Clover (white clover; [3]): 6
- % Control Clover (white clover; Test 3, 24 HAT): 11.1%
- Control (1-9) Clover (white clover; [4]): 1
- % Control Clover (white clover; Test 3, 72 HAT): 22.2%
- Control (1-9) Clover (white clover; [5]): 2
- % Control Clover (white clover; Test 4, 24 HAT): 11.1%
- Control (1-9) Clover (white clover; [6]): 1
- % Control Clover (white clover; Test 4, 72 HAT): 22.2%
- Control (1-9) Clover (white clover; [7]): 2
- % Control Plantain (plantain; Test 3, 7 DAT): 22.2%
- Control (1-9) Plantain (plantain; [1]): 2
- % Control Plantain (plantain; Test 3, 14 DAT): 33.3%
- Control (1-9) Plantain (plantain; [2]): 3
- % Control Plantain (plantain; Test 3, 21 DAT): 33.3%
- Control (1-9) Plantain (plantain; [3]): 3
- % Control Plantain (plantain; Test 3, 24 HAT): 11.1%
- Control (1-9) Plantain (plantain; [4]): 1
- % Control Plantain (plantain; Test 3, 72 HAT): 22.2%
- Control (1-9) Plantain (plantain; [5]): 2
- % Control Plantain (plantain; Test 4, 24 HAT): 11.1%
- Control (1-9) Plantain (plantain; [6]): 1
- % Control Plantain (plantain; Test 4, 72 HAT): 22.2%
- Control (1-9) Plantain (plantain; [7]): 2
